# Measured values reported in patent US20090215710A1, “CARBOHYDRATE BASED TOLL-LIKE RECEPTOR (TLR) ANTAGONISTS” (RELIANCE LIFE SCIENCES PVT. LTD., priority 2007, published 2009).
# System: TLR related genes (TIRAP, IRAK1, IRAK4, TRAF6, TRIF)
# Assay: mRNA expression of TLR related genes in LPS stimulated THP-1 cells (PCR)
# Type: cell-based, human
# Conditions: THP-1, LPS 250 ng/ml 1 hr
# Experimental: Serum-starved THP-1 cells were stimulated with LPS (250 ng/ml) for 1 hr in the presence and absence of RSCL-0409. Total RNA was isolated from treated cells post LPS exposure. The cDNA was used for PCR against specific primers for the TLR related genes and β-actin was used as internal control.
# To rule out the possibility of a TRIF dependent pathway, a MyD88 independent path, we have checked its expression levels also in the treated cells.
smiles,measurement,value
"COc1ccc(OC2OC3COC(c4ccccc4)OC3C(OC3OC(COC(=O)CCC(C)=O)C(OC(=O)CCl)C(OC(C)=O)C3OC(C)=O)C2NC(=O)C(Cl)(Cl)Cl)cc1 [RSCL-0409, p-Methoxy phenyl-O-(2,3-di-O-acetyl-4-O-chloroacetyl-6-O-levulinoyl-β-D-glucopyranosyl)-(1-3)-2-deoxy-2-trichloroacetamido-4,6-O-benzylidene-α-D-glucopyranoside]",TRIF mRNA levels,remained unaffected
same,expression level of TRAF6,not down regulated significantly
same,"mRNA expression levels of TIRAP, IRAK1 and IRAK4","inhibits the mRNA expression levels of TIRAP, IL-1R-associated kinase1 (IRAK1) and IRAK4"
